Results: PubChem BioAssay AID1963423 (Molecular Pharmacology Branch, DTP, NCI, 2024)

Test system: 439559-082-T-J2-PDC complex spheroid growth
Experiment: Anticancer human tumor 439559-082-T-J2-PDC patient-derived colon adenocarcinoma cell line growth inhibition [Asc]
Details: for IC50: curve of first compound; for viability, T/C: stronger effect = lower value
In short: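 Tumor cells were grown as complex spheroids with human endothelial cells (HUVEC) and human mesenchymal stem cells as stroma. Agents were tested alone and in combination, in half-log steps down from the clinical Cmax, or from 10 microM where Cmax was unknown.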
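Note: spheroids exposed to agents for 7 days starting day 3 after seeding.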
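Throughout, for viability, T/C: percent of DMSO vehicle control viability with 100% = vehicle.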

For `CCN1C(C(=O)NC23CCC(C(=O)O)(CC2)CC3)C(c2cccc(Cl)c2F)C2(C(=O)Nc3cc(Cl)ccc32)C12CCCCC2` (configuration not stated) + CNC(C)C(=O)NC1CN(S(=O)(=O)c2cccc(S(=O)(=O)N3CCC4CCC(C(=O)NC(c5ccccc5)c5ccccc5)N4C(=O)C(NC(=O)C(C)NC)C3)c2)CCC2CCC(C(=O)NC(c3ccccc3)c3ccccc3)N2C1=O, the IC50 (second compound 0.00316 µM) was > 3 µM, the IC50 (second compound 0.01 µM) was > 3 µM and the IC50 (second compound 0.0316 µM) was > 3 µM. The IC50 (second compound 0.1 µM) was > 3 µM, the IC50 (second compound 0.316 µM) was > 3 µM and the IC50 (second compound 1 µM) was > 3 µM. The viability, T/C (second compound 0.00316 µM, first compound 0.00949 µM) was 116%, the viability, T/C (second compound 0.00316 µM, first compound 0.03 µM) was 92.9% and the viability, T/C (second compound 0.00316 µM, first compound 0.0949 µM) was 107%. It also gave a viability, T/C (second compound 0.00316 µM, first compound 0.3 µM) of 106%, a viability, T/C (second compound 0.00316 µM, first compound 0.949 µM) of 95.6% and a viability, T/C (second compound 0.00316 µM, first compound 3 µM) of 107%. For the same compound, the viability, T/C (second compound 0.01 µM, first compound 0.00949 µM) was 109%, the viability, T/C (second compound 0.01 µM, first compound 0.03 µM) was 103% and the viability, T/C (second compound 0.01 µM, first compound 0.0949 µM) was 100%. For the same compound, the viability, T/C (second compound 0.01 µM, first compound 0.3 µM) was 99.8%, the viability, T/C (second compound 0.01 µM, first compound 0.949 µM) was 113% and the viability, T/C (second compound 0.01 µM, first compound 3 µM) was 96.5%. For the same compound, the viability, T/C (second compound 0.0316 µM, first compound 0.00949 µM) was 103%, the viability, T/C (second compound 0.0316 µM, first compound 0.03 µM) was 106% and the viability, T/C (second compound 0.0316 µM, first compound 0.0949 µM) was 103%. It also gave a viability, T/C (second compound 0.0316 µM, first compound 0.3 µM) of 102%, a viability, T/C (second compound 0.0316 µM, first compound 0.949 µM) of 115% and a viability, T/C (second compound 0.0316 µM, first compound 3 µM) of 110%. The viability, T/C (second compound 0.1 µM, first compound 0.00949 µM) was 95.9%, the viability, T/C (second compound 0.1 µM, first compound 0.03 µM) was 101% and the viability, T/C (second compound 0.1 µM, first compound 0.0949 µM) was 117%. It also gave a viability, T/C (second compound 0.1 µM, first compound 0.3 µM) of 99.1%, a viability, T/C (second compound 0.1 µM, first compound 0.949 µM) of 105% and a viability, T/C (second compound 0.1 µM, first compound 3 µM) of 107%. It also gave a viability, T/C (second compound 0.316 µM, first compound 0.00949 µM) of 105%, a viability, T/C (second compound 0.316 µM, first compound 0.03 µM) of 94.2% and a viability, T/C (second compound 0.316 µM, first compound 0.0949 µM) of 91.3%. The viability, T/C (second compound 0.316 µM, first compound 0.3 µM) was 85.3%, the viability, T/C (second compound 0.316 µM, first compound 0.949 µM) was 96.5% and the viability, T/C (second compound 0.316 µM, first compound 3 µM) was 87.1%. It also gave a viability, T/C (second compound 1 µM, first compound 0.00949 µM) of 78.6%, a viability, T/C (second compound 1 µM, first compound 0.03 µM) of 87.7% and a viability, T/C (second compound 1 µM, first compound 0.0949 µM) of 76.8%. The viability, T/C (second compound 1 µM, first compound 0.3 µM) was 75.8%, the viability, T/C (second compound 1 µM, first compound 0.949 µM) was 88.8% and the viability, T/C (second compound 1 µM, first compound 3 µM) was 79.5%.

`C=C(F)C(=O)N1CCN(c2nc(OCC3CCCN3C)nc3c2CCN(c2cccc4cccc(Cl)c24)C3)CC1CC#N` (configuration not stated) + Cc1c(S(C)(=O)=O)c(-c2cc(F)cc(N3CCN(c4ccc(NS(=O)(=O)c5ccc(NC(CCN6CCC(C(=O)OCCCP(=O)(O)O)CC6)CSc6ccccc6)c(S(=O)(=O)C(F)(F)F)c5)cc4)CC3)c2)c(-c2ccc(Cl)cc2)n1C(C)C showed an IC50 (second compound 0.1 µM) of 5.15 µM, an IC50 (second compound 0.316 µM) of 4.17 µM and an IC50 (second compound 1 µM) of 4.17 µM. The IC50 (second compound 3.16 µM) was 3.17 µM, the IC50 (second compound 10 µM) was 2.78 µM and the viability, T/C (second compound 0.1 µM, first compound 0.0316 µM) was 96.8%. The viability, T/C (second compound 0.1 µM, first compound 0.1 µM) was 107%, the viability, T/C (second compound 0.1 µM, first compound 0.316 µM) was 95% and the viability, T/C (second compound 0.1 µM, first compound 1 µM) was 88.6%. For the same compound, the viability, T/C (second compound 0.1 µM, first compound 3.16 µM) was 78.4%, the viability, T/C (second compound 0.1 µM, first compound 10 µM) was 14.2% and the viability, T/C (second compound 0.316 µM, first compound 0.0316 µM) was 95.3%. For the same compound, the viability, T/C (second compound 0.316 µM, first compound 0.1 µM) was 106%, the viability, T/C (second compound 0.316 µM, first compound 0.316 µM) was 98.5% and the viability, T/C (second compound 0.316 µM, first compound 1 µM) was 77.7%. It also gave a viability, T/C (second compound 0.316 µM, first compound 3.16 µM) of 69.2%, a viability, T/C (second compound 0.316 µM, first compound 10 µM) of 4.6% and a viability, T/C (second compound 1 µM, first compound 0.0316 µM) of 95.8%. It also gave a viability, T/C (second compound 1 µM, first compound 0.1 µM) of 94.5%, a viability, T/C (second compound 1 µM, first compound 0.316 µM) of 103% and a viability, T/C (second compound 1 µM, first compound 1 µM) of 84.5%. For the same compound, the viability, T/C (second compound 1 µM, first compound 3.16 µM) was 66.6%, the viability, T/C (second compound 1 µM, first compound 10 µM) was 0.51% and the viability, T/C (second compound 3.16 µM, first compound 0.0316 µM) was 79.1%. The viability, T/C (second compound 3.16 µM, first compound 0.1 µM) was 95.3%, the viability, T/C (second compound 3.16 µM, first compound 0.316 µM) was 93.4% and the viability, T/C (second compound 3.16 µM, first compound 1 µM) was 71.7%. It also gave a viability, T/C (second compound 3.16 µM, first compound 3.16 µM) of 51.6%, a viability, T/C (second compound 3.16 µM, first compound 10 µM) of 0.43% and a viability, T/C (second compound 10 µM, first compound 0.0316 µM) of 68%. The viability, T/C (second compound 10 µM, first compound 0.1 µM) was 85.8%, the viability, T/C (second compound 10 µM, first compound 0.316 µM) was 86.3% and the viability, T/C (second compound 10 µM, first compound 1 µM) was 65.8%. It also gave a viability, T/C (second compound 10 µM, first compound 3.16 µM) of 48.5% and a viability, T/C (second compound 10 µM, first compound 10 µM) of 2.9%.

With `Cn1ncnc1[C@H]1c2n[nH]c(=O)c3cc(F)cc(c23)N[C@@H]1c1ccc(F)cc1` + CCN1C(C(=O)NC23CCC(C(=O)O)(CC2)CC3)C(c2cccc(Cl)c2F)C2(C(=O)Nc3cc(Cl)ccc32)C12CCCCC2 the IC50 (second compound 0.03 µM) was > 0.1 µM, the IC50 (second compound 0.0949 µM) was > 0.1 µM and the IC50 (second compound 0.3 µM) was > 0.1 µM. The IC50 (second compound 0.949 µM) was > 0.1 µM, the IC50 (second compound 3 µM) was > 0.1 µM and the viability, T/C (second compound 0.03 µM, first compound 0.000316 µM) was 106%. The viability, T/C (second compound 0.03 µM, first compound 0.001 µM) was 109%, the viability, T/C (second compound 0.03 µM, first compound 0.00316 µM) was 103% and the viability, T/C (second compound 0.03 µM, first compound 0.01 µM) was 100%. For the same compound, the viability, T/C (second compound 0.03 µM, first compound 0.0316 µM) was 101%, the viability, T/C (second compound 0.03 µM, first compound 0.1 µM) was 95.3% and the viability, T/C (second compound 0.0949 µM, first compound 0.000316 µM) was 103%. The viability, T/C (second compound 0.0949 µM, first compound 0.001 µM) was 104%, the viability, T/C (second compound 0.0949 µM, first compound 0.00316 µM) was 106% and the viability, T/C (second compound 0.0949 µM, first compound 0.01 µM) was 83.4%. The viability, T/C (second compound 0.0949 µM, first compound 0.0316 µM) was 94.6%, the viability, T/C (second compound 0.0949 µM, first compound 0.1 µM) was 96.6% and the viability, T/C (second compound 0.3 µM, first compound 0.000316 µM) was 98.8%. It also gave a viability, T/C (second compound 0.3 µM, first compound 0.001 µM) of 113%, a viability, T/C (second compound 0.3 µM, first compound 0.00316 µM) of 109% and a viability, T/C (second compound 0.3 µM, first compound 0.01 µM) of 86.2%. The viability, T/C (second compound 0.3 µM, first compound 0.0316 µM) was 96.2%, the viability, T/C (second compound 0.3 µM, first compound 0.1 µM) was 101% and the viability, T/C (second compound 0.949 µM, first compound 0.000316 µM) was 107%. The viability, T/C (second compound 0.949 µM, first compound 0.001 µM) was 111%, the viability, T/C (second compound 0.949 µM, first compound 0.00316 µM) was 108% and the viability, T/C (second compound 0.949 µM, first compound 0.01 µM) was 99%. For the same compound, the viability, T/C (second compound 0.949 µM, first compound 0.0316 µM) was 88.3%, the viability, T/C (second compound 0.949 µM, first compound 0.1 µM) was 103% and the viability, T/C (second compound 3 µM, first compound 0.000316 µM) was 89%. The viability, T/C (second compound 3 µM, first compound 0.001 µM) was 94.7%, the viability, T/C (second compound 3 µM, first compound 0.00316 µM) was 101% and the viability, T/C (second compound 3 µM, first compound 0.01 µM) was 86.6%. It also gave a viability, T/C (second compound 3 µM, first compound 0.0316 µM) of 84.4% and a viability, T/C (second compound 3 µM, first compound 0.1 µM) of 91.6%.
